These results are taken from ChEMBL document CHEMBL5260795, “Antifungal potential of marine natural products” (Eur J Med Chem, 2017).

Molecules are shown by their SMILES. Values after ≈ are worked out from the molar mass of the structure shown. Where a SMILES comes first, the peptide text is derived from it. The star is where a group is joined. Tridecanoyl(3R-OH,11-Me) = CCC(C)CCCCCCC[C@@H](O)CC(=O)*; X1 = CCC(C)CC(C)CCCCC[C@@H](O)CC(=O)*; X2 = CCC(C)CC(C)CCCC[C@@H](O)CC(=O)*; X3 = CCC(C)CCCCCCCC[C@@H](O)CC(=O)*

As usually defined, the MIC is the lowest concentration that inhibits growth of the organism. Usually IC50 stands for the concentration that inhibits the measured activity by half.

Experiment [1] deals with Candida albicans. The experiment can be described thus: Antimicrobial activity against Candida albicans assessed as reduction of microbial microbial growth. It is filed as functional.
In experiment [2] the test system is Candida albicans. The experiment can be described thus: Antifungal activity against Candida albicans. It is filed as functional, organism-based.
Experiment [3] is described as follows: Inhibition of Candida albicans CaCdr1p transporter assessed as reduction in rhodamine 6G efflux.
Experiment [4] can be described thus: Inhibition of Candida albicans CaCdr1p transporter ATPase activity.
Experiment [5] has as its system Rhizoctonia solani. The experiment can be described thus: Antifungal activity against Rhizoctonia solani incubated for 48 hrs by standard broth dilution method. The experiment is classed as functional.
Another experiment concerns Phytophthora capsici. The experiment can be described thus: Antifungal activity against Phytophthora capsici incubated for 48 hrs by standard broth dilution method. The experiment is classed as functional. A general note: Broth dilution looks for growth in wells or tubes with falling amounts of substance.
Experiment [6] has as its system Botrytis cinerea. The experiment can be described thus: Antifungal activity against Botrytis cinerea incubated for 48 hrs by standard broth dilution method. The experiment is classed as functional.
For experiment [7], the system named is Colletotrichum acutatum. The experiment can be described thus: Antifungal activity against Colletotrichum acutatum incubated for 48 hrs by standard broth dilution method. The experiment is classed as functional.
The subject of experiment [8] is Saccharomyces cerevisiae. The experiment can be described thus: Antifungal activity against Saccharomyces cerevisiae. The experiment is classed as functional.
Another experiment has as its system Aspergillus niger. The experiment can be described thus: Antimicrobial activity against Aspergillus niger incubated for 72 hrs by standard broth dilution method. It is filed as functional.
In experiment [9] the test system is Botrytis cinerea. The experiment can be described thus: Antimicrobial activity against Botrytis cinerea incubated for 72 hrs by standard broth dilution method. It is filed as functional.
Experiment [10] concerns Colletotrichum acutatum. The experiment can be described thus: Antimicrobial activity against Colletotrichum acutatum incubated for 72 hrs by standard broth dilution method. It is filed as functional.
For experiment [11], the system named is Rhizoctonia solani. The experiment can be described thus: Antimicrobial activity against Rhizoctonia solani incubated for 72 hrs by standard broth dilution method. It is filed as functional.
Experiment [12] deals with Candida albicans. The experiment can be described thus: Antimicrobial activity against Candida albicans incubated for 72 hrs by standard broth dilution method. It is filed as functional.
For experiment [13], the system named is Saccharomyces cerevisiae. The experiment can be described thus: Antimicrobial activity against Saccharomyces cerevisiae incubated for 72 hrs by standard broth dilution method. The experiment is classed as functional.

For `C=C[C@@](C)(CC/C=C(\C)CC[C@]1(C)C(C=O)=CCC[C@H]1C)S(=O)(=O)CCNC(=N)N`, in the experiment on Candida albicans [1], the MIC amounted to 4 µg/mL.
With `C[C@@H]1NC(=O)[C@@H](Cc2ccccc2)NC(=O)[C@@H](CO)NC(=O)c2ccccc2NC(=O)/C(=C\c2c[nH]c3ccccc23)NC(=O)[C@H]([C@@H](C)O)NC1=O`, the MIC in the experiment on Candida albicans [2] was determined as 2.48 µg/mL (≈ 3.49 µM).
Turning to `C/C=C(\NC(=O)[C@@H](NC(=O)[C@H](O)[C@H](O)[C@H](CCCNC(=N)N)NC(=O)[C@@H](C)NC(=O)[C@H](C)[C@H](O)[C@H](C)CC(C)C)[C@@H](C)[C@@H](C)C(N)=O)C(=O)N[C@@H](C(=O)N[C@H](CCCNC(=N)N)C(=O)O)[C@@H](C)O`, in the experiment with Candida albicans [2], the MIC came to 0.1 µg/mL (≈ 0.103 µM).
On to `CCCCC[C@@H]1CC(=O)N[C@@H](CC(C)C)C(=O)N[C@H](Cc2ccccc2)C(=O)N[C@@H](CC(C)C)C(=O)N[C@@H](Cc2ccccc2)C(=O)O1`, for which the figures for the IC50 in [3] and in [4] were 3.74 µg/mL (≈ 5.64 µM) and 0.46 µg/mL (≈ 0.694 µM), respectively.
In the case of `CCC(C)CC(C)CCCC[C@@H](O)CC(=O)N[C@@H](CC(C)C)C(=O)N[C@@H](CCC(=O)O)C(=O)N[C@@H](CC(C)C)C(=O)N[C@@H](CC(C)C)C(=O)O` (some centres undefined) (X2-LELL-OH), the MIC in the experiment with Rhizoctonia solani [5], with Phytophthora capsici, in the experiment on Botrytis cinerea [6] and in the experiment with Colletotrichum acutatum [7] was 0.01 µg/mL (≈ 0.014 µM) throughout.
The molecule `CC(C)[C@@H](C)[C@@H]1O[C@@H]1[C@@H](C)[C@H]1[C@@H](O)C[C@]2(O)C3=CC=C4C[C@@H](O)CC[C@]4(C)C3[C@H](O)C(=O)[C@]12C` (some centres undefined) displayed an MIC with Candida albicans [2] of 1.56 µg/mL (≈ 3.29 µM).
With `CCC(C)CCCCCCC[C@@H](O)CC(=O)N[C@@H](CC(C)C)C(=O)N[C@@H](CCC(=O)O)C(=O)N[C@@H](CC(C)C)C(=O)N[C@@H](CC(C)C)C(=O)O` (stereo partly drawn) ({Tridecanoyl(3R-OH,11-Me)}-LELL-OH), the MIC in the experiment on Rhizoctonia solani [5], in the experiment on Phytophthora capsici, against Botrytis cinerea [6] and in the experiment with Colletotrichum acutatum [7] was 0.01 µg/mL (≈ 0.014 µM) each time.
With `C[C@@H]1CCC/C=C/[C@@H]2O[C@](O)(C[C@@H](O)C/C=C\C=C\C(O[C@@H]3O[C@H](CO)[C@@H](O)[C@H](O)[C@H]3O)C/C=C/C=C\C(=O)O1)[C@H]2O` (some centres undefined), in the experiment with Saccharomyces cerevisiae [8], the MIC was 0.22 µg/mL (≈ 0.369 µM).
On to `CC1=CCC[C@H](C)[C@@]1(C)CC/C(C)=C/CC/C(C)=C/CS(=O)(=O)CCNC(=N)N`, for which the minimal inhibitory concentration (MIC) with Candida albicans [1] stood at 0.5 µg/mL.
As for `C[C@@H]1CCC/C=C/C=C/[C@H](O)C[C@@H](O)C[C@@H]2O[C@@H]2/C=C/[C@@H](O)C/C=C/C=C\C(=O)O1` [GAGEOMACROLACTIN 1], the MIC in the experiment with Aspergillus niger, against Botrytis cinerea [9], in the experiment with Colletotrichum acutatum [10], with Rhizoctonia solani [11], in the experiment on Candida albicans [12] and against Saccharomyces cerevisiae [13] was 0.02 µg/mL (≈ 0.0478 µM) in each case.
`CO[C@H]1/C=C/C=C/CCC[C@@H](C)OC(=O)/C=C\C=C\C[C@H](O[C@@H]2O[C@@H](CO)[C@@H](O)[C@H](O)[C@H]2O)/C=C/C=C\C[C@H](O)C1`: the minimum inhibitory concentration (MIC) with Aspergillus niger, with Botrytis cinerea [9], against Colletotrichum acutatum [10], with Rhizoctonia solani [11], against Candida albicans [12] and against Saccharomyces cerevisiae [13] was 0.02 µg/mL (≈ 0.0346 µM) in each case.
With `CCC(C)CC(C)CCCCC[C@@H](O)CC(=O)N[C@@H](CC(C)C)C(=O)N[C@@H](CCC(=O)O)C(=O)N[C@@H](CC(C)C)C(=O)N[C@@H](CC(C)C)C(=O)O` (some centres undefined) (X1-LELL-OH), the MIC with Rhizoctonia solani [5], in the experiment on Phytophthora capsici, with Botrytis cinerea [6] and against Colletotrichum acutatum [7] was 0.01 µg/mL (≈ 0.0138 µM) each time.
Consider `C/C=C(\NC(=O)[C@@H](NC(=O)[C@H](O)[C@H](O)[C@H](CCCNC(=N)N)NC(=O)[C@@H](C)NC(=O)[C@H](C)[C@H](O)[C@H](C)CC(C)C)[C@@H](C)[C@@H](C)C(N)=O)C(=O)N[C@@H](C(=O)N[C@H](CCCNC(=N)N)C(=O)N[C@@H](CC(C)C)C(=O)N(C)[C@@H](CCC(N)=O)C(=O)N[C@@H](C(=O)N(C)[C@@H](C)C(=O)O)[C@H](OC)c1ccc(O)cc1)[C@@H](C)O`, for which, in the experiment with Candida albicans [2], it took 0.1 µg/mL (≈ 0.0664 µM) to inhibit growth (MIC).
For the molecule `CCC(C)CCCCCCCC[C@@H](O)CC(=O)N[C@@H](CCC(=O)OC)C(=O)N[C@@H](CC(C)C)C(=O)N[C@@H](CC(C)C)C(=O)N[C@@H](CC(C)C)C(=O)O` (some centres undefined) (X3-E(OMe)LLL-OH), the minimum inhibitory concentration (MIC) in the experiment on Rhizoctonia solani [5], against Phytophthora capsici, against Botrytis cinerea [6] and against Colletotrichum acutatum [7] was 0.01 µg/mL (≈ 0.0135 µM) in each case.
In turn, `CC(C)C[C@H](NC(=O)[C@@H](CCCNC(=N)N)NC(=O)[C@H](NC(=O)[C@H](NC(=O)[C@@H](NC(=O)[C@H](O)[C@H](O)[C@H](CCCNC(=N)N)NC(=O)[C@@H](C)NC(=O)[C@H](C)[C@H](O)[C@H](C)CC(C)C)[C@@H](C)[C@@H](C)C(N)=O)[C@@H](C)O)[C@@H](C)O)C(=O)N(C)[C@@H](CCC(N)=O)C(=O)O` gave an MIC in the experiment on Candida albicans [2] of 0.1 µg/mL (≈ 0.0803 µM).
For `C[C@@H]1CCC/C=C/CCC(=O)C[C@@H](O)C/C=C\C=C\[C@@H](O)C/C=C/C=C\C(=O)O1` [MACROLACTIN F], the MIC against Aspergillus niger, against Botrytis cinerea [9], with Colletotrichum acutatum [10], in the experiment with Rhizoctonia solani [11], against Candida albicans [12] and in the experiment on Saccharomyces cerevisiae [13] was 0.02 µg/mL (≈ 0.0497 µM) each time.
